Where two headings read alike, the source gives them in different places.
Columns and labels:
human orexin-2 receptor = molecular target: T1, human orexin-2 receptor (Homo sapiens, UniProt O43614); assay: Intracellular calcium measurements (FLIPR), orexin receptor antagonistic activity; assay type: cell-based; settings: read-out: IC50 OX2
T1 construct: expressed in transfected cells; host or cells: CHO cells (G418 selection)
T1 sequence (O43614 1-444): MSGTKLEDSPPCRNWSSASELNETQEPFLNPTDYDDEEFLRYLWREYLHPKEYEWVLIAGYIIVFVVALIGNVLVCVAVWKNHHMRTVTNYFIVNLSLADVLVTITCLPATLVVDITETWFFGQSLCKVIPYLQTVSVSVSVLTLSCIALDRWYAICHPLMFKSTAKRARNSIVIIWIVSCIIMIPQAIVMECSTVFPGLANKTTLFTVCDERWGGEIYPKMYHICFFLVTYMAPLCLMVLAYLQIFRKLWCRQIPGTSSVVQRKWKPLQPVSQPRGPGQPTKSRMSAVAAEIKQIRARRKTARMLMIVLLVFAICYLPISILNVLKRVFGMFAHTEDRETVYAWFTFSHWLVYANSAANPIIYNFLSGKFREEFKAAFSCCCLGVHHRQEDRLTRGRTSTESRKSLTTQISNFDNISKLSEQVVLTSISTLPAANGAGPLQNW
Protocol: (§1) The orexin receptor antagonistic activity of the compounds of formula (II) is determined in accordance with the following experimental method.
(§2) Intracellular Calcium Measurements:
(§3) Chinese hamster ovary (CHO) cells expressing the human orexin-1 receptor and the human orexin-2 receptor, respectively, are grown in culture medium (Ham F-12 with L-Glutamine) containing 300 μg/ml G418, 100 U/ml penicillin, 100 μg/ml streptomycin and 10% inactivated fetal calf serum (FCS). The cells are seeded at 80'000 cells/well into 96-well black clear bottom sterile plates (Costar) which have been precoated with 1% gelatine in Hanks' Balanced Salt Solution (HBSS). All reagents are from Gibco BRL. The seeded plates are incubated overnight at 37° C. in 5% CO2.
(§4) Human orexin-A as an agonist is prepared as 1 mM stock solution in methanol:water (1:1), diluted in HBSS containing 0.1% bovine serum albumin (BSA) and 2 mM HEPES for use in the assay at a final concentration of 10 nM.
(§5) Antagonists are prepared as 10 mM stock solution in DMSO, then diluted in 96-well plates, first in DMSO, then in HBSS containing 0.1% bovine serum albumin (BSA) and 2 mM HEPES.
(§6) On the day of the assay, 100 μl of loading medium (HBSS containing 1% FCS, 2 mM HEPES, 5 mM probenecid (Sigma) and 3 μM of the fluorescent calcium indicator fluo-3 AM (1 mM stock solution in DMSO with 10% pluronic acid) (Molecular Probes) is added to each well.
(§7) The 96-well plates are incubated for 60 min at 37° C. in 5% CO2. The loading solution is then aspirated and cells are washed 3 times with 200 μl HBSS containing 2.5 mM probenecid, 0.1% BSA, 2 mM HEPES. 100 μl of that same buffer is left in each well.
(§8) Within the Fluorescent Imaging Plate Reader (FLIPR, Molecular Devices), antagonists are added to the plate in a volume of 50 μl, incubated for 20 min and finally 100 μl of agonist is added. Fluorescence is measured for each well at 1 second intervals, and the height of each fluorescence peak is compared to the height of the fluorescence peak induced by 10 nM orexin-A with buffer in place of antagonist.

human orexin-1 receptor = molecular target: T2, human orexin-1 receptor (Homo sapiens, UniProt O43613); assay: as above; assay type: cell-based; settings: CHO cells expressing human orexin-1 receptor; agonist 10 nM human orexin-A; fluo-3 calcium signal; read-out: IC50 OX1
T2 construct: expressed in transfected cells; host or cells: CHO cells (G418 selection)
T2 sequence (O43613 1-425): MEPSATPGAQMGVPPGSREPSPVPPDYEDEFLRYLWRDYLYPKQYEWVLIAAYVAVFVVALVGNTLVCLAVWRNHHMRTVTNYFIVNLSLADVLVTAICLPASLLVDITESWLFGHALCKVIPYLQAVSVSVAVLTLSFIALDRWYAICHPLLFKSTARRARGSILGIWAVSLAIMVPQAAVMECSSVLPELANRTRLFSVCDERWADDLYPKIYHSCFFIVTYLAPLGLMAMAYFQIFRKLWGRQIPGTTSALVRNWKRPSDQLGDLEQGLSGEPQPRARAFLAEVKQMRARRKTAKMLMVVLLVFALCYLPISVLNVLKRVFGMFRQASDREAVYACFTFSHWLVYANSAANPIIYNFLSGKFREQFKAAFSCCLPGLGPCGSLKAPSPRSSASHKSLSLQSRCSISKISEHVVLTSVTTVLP
Protocol: as §1, §2, §3, §4, §5, §6, §7, §8

[1] = CHO cells expressing human orexin-2 receptor, agonist 10 nM human orexin-A, fluo-3 calcium signal

SMILES	IC50 (human orexin-2 receptor; [1]) [nM]	IC50 (human orexin-1 receptor) [nM]	IC50 (human orexin-2 receptor) [nM]
CCn1nc(C)c2c1CCCN([C@@H](C(=O)NC)c1ccccc1)[C@H]2CCc1cc(F)c(C(F)(F)F)c(F)c1 [Example 1 (4S;2′R), (R)-2′-{(S)-4-[2-(3,5-difluoro-4-trifluoromethyl-phenyl)-ethyl]-1-ethyl-3-methyl-4,6,7,8-tetrahydro-1H-1,2,5-triaza-azulen-5-yl}-N-methyl-2′-phenyl-acetamide]	12	22	
CCn1nc(C)c2c1CCCN([C@@H](C(=O)NC)c1ccccc1)[C@H]2CCc1ccc(C)c(C)c1 [Example 2 (4S;2′R), (R)-2′-{(S)-4-[2-(3,4-dimethyl-phenyl)-ethyl]-1-ethyl-3-methyl-4,6,7,8-tetrahydro-1H-1,2,5-triaza-azulen-5-yl}-N-methyl-2′-phenyl-acetamide]	6	36	
CCn1nc(C)c2c1CCCN([C@@H](C(=O)NC)c1ccccc1)[C@H]2CCc1ccc(C(F)(F)F)cc1F [Example 3 (4S;2′R), (R)-2′-{1-ethyl-(S)-4-[2-(2-fluoro-4-trifluoromethyl-phenyl)-ethyl]-3-methyl-4,6,7,8-tetrahydro-1H-1,2,5-triaza-azulen-5-yl}-N-methyl-2′-phenyl-acetamide]	18	138	
CCn1nc(C)c2c1CCCN([C@@H](C(=O)NC)c1ccccc1)[C@H]2CCc1cc(F)c(C)c(F)c1 [Example 4 (4S;2′R), (R)-2′-{(S)-4-[2-(3,5-difluoro-4-methyl-phenyl)-ethyl]-1-ethyl-3-methyl-4,6,7,8-tetrahydro-1H-1,2,5-triaza-azulen-5-yl}-N-methyl-2′-phenyl-acetamide]		26	6
